Here are results for two compounds from ChEMBL document CHEMBL1150839, “Dihydroagarofuran sesquiterpene alkaloids from Maytenus putterlickoides” (J Nat Prod, 2001).

Activity calls are given as the source filed them. The rule behind the calls is not given here.

In one series the test system is Artemia. The series is described as follows: Toxicity in brine shrimp. As to conditions: in vivo. The series is classed as organism-based.
Series [1] in a line: Inhibition of PKC.

Take `CC(=O)OC[C@]12[C@H](O)[C@H](OC(=O)c3cccnc3)[C@@H]3[C@@H](OC(C)=O)[C@@]14O[C@@]3(C)COC(=O)c1cccnc1[C@@H](C)[C@H](C)C(=O)O[C@@H]([C@H](OC(=O)C(C)C)[C@@H]2OC(C)=O)[C@]4(C)O` [PUTTERINE B]: the Activity entry with Artemia is reported as “Toxic”. Besides, in series [1], the inhibition entry was “inactive”.
Turning to `CC(=O)OC[C@]12[C@H](O)[C@H](OC(=O)c3cccnc3)[C@@H]3[C@@H](OC(C)=O)[C@@]14O[C@@]3(C)COC(=O)c1cccnc1[C@@H](C)[C@H](C)C(=O)O[C@@H]([C@H](OC(C)=O)[C@@H]2OC(C)=O)[C@]4(C)O` [PUTTERINE A], the Activity entry in the series with Artemia is “Toxic”. Further, the inhibition result in series [1] is “inactive”.
